Measurements from patent publication US20170022171A1, “2,5-DISUBSTITUTED CYCLOPENTANECARBOXYLIC ACIDS AND THEIR USE” (Bayer Pharma Aktiengesellschaft, priority 2014, published 2017).

biological target: T1, human macrophage elastase (HME/hMMP-12) (Homo sapiens, UniProt P39900); assay: In vitro HME inhibition test (standard or high-sensitivity); assay type: biochemical; conditions: in some cases mean values
T1 construct: 0.5 nM HME; purchased R&D Systems 917-MP
Description: The potency of the compounds according to the invention with respect to HME (MMP-12) is determined in an in vitro inhibition test. The HME-mediated amidolytic cleavage of a suitable peptide substrate leads to an increase in fluorescent light therein. The signal intensity of the fluorescent light is directly proportional to the enzyme activity. The active concentration of a test compound at which half the enzyme is inhibited (50% signal intensity of the fluorescent light) is reported as the IC50 value.
In a 384 hole microtiter plate, in a total test volume of 41 the test buffer (0.1 M HEPES pH 7.4, 0.15 M NaCl, 0.03 M CaCl2, 0.004 mM ZnCl2, 0.02 M EDTA, 0.005% Brij®), the enzyme (0.5 nM HME; from R&D Systems, 917-MP, autocatalytic activation according to the manufacturer's instructions) and the intramolecularly quenched substrate [5 μM Mca-Pro-Leu-Gly-Leu-Glu-Glu-Ala-Dap(Dnp)-NH2; Bachem, M-2670] are incubated in the absence and presence of the test substance (as a solution in DMSO) at 37° C. for two hours. The fluorescence intensity of the test mixtures is measured (excitation […], emission 393 nm). The IC50 values are ascertained by plotting the fluorescent light intensity against the active ingredient concentration.
In this case, an enzyme concentration ten times lower is used (final concentration, for example, 0.05 nM) in order to achieve an elevated test sensitivity. The incubation period chosen for the test is correspondingly longer (for example 16 hours).

T1 sequence (P39900 106-470): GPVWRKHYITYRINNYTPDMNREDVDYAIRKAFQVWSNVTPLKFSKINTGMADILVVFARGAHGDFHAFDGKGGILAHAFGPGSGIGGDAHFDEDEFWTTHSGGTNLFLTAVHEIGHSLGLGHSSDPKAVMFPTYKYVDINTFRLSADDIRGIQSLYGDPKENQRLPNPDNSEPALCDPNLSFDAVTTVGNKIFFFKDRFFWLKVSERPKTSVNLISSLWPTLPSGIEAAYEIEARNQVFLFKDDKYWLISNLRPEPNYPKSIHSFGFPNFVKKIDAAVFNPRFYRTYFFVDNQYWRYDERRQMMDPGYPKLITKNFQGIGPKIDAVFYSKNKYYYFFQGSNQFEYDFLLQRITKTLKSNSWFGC

| Compound | IC50 [nM] |
| --- | --- |
| Cc1ccc2nnn(C[C@@H]3CC[C@H](C(=O)c4ccc(OCCc5ccccc5)cc4)[C@H]3C(=O)O)c(=O)c2c1 (racemic) [Example 112, (+/−)-(1RS,2SR,5RS)-2-[(6-Methyl-4-oxo-1,2,3-benzotriazin-3(4H)-yl)methyl]-5-[4-(2-phenylethoxy)benzoyl]cyclopentanecarboxylic acid] | 0.66 |
| CCCCOc1ccc(C(=O)[C@H]2CC[C@@H](Cn3nnc4ccccc4c3=O)[C@@H]2C(=O)O)cc1 (racemic) [Example 10, (+/−)-(1RS,2RS,5SR)-2-(4-Butoxybenzoyl)-5-[(4-oxo-1,2,3-benzotriazin-3 (4H)-yl)methyl]cyclopentanecarboxylic acid] | 0.36 |
| Cc1ccc2nnn(C[C@H]3CC[C@@H](C(=O)c4ccc(OCc5ccc(F)cc5)cc4)[C@@H]3C(=O)O)c(=O)c2c1 (single isomer, unassigned) [Example 96, (−)-(1RS,2RS,5SR)-2-{4-[(4-Fluorobenzyl)oxy]benzoyl}-5-[(6-methyl-4-oxo-1,2,3-benzotriazin-3(4H)-yl)methyl]cyclopentanecarboxylic acid] | 120 |
| Cc1ccc2nnn(C[C@H]3CC[C@@H](C(=O)c4ccc(OCc5ccc(F)cc5)cc4)[C@@H]3C(=O)O)c(=O)c2c1 (single isomer, unassigned) [Example 95, (+)-(1RS,2RS,5SR)-2-{4-[(4-Fluorobenzyl)oxy]benzoyl}-5-[(6-methyl-4-oxo-1,2,3-benzotriazin-3(4H)-yl)methyl]cyclopentanecarboxylic acid] | 0.025 |
| O=C(O)[C@@H]1[C@@H](Cn2nnc3ccc(C(F)(F)F)cc3c2=O)CC[C@H]1C(=O)c1ccc(OCC2CCCC2)cc1 (single isomer, unassigned) [Example 45, (−)-(1RS,2RS,5SR)-2-[4-(Cyclopentylmethoxy)benzoyl]-5-{[4-oxo-6-(trifluoromethyl)-1,2,3-benzotriazin-3(4H)-yl]methyl}cyclopentanecarboxylic acid] | 4.1 |
| CCCCCCOc1ccc(C(=O)[C@H]2CC[C@@H](Cn3nnc4ccc(C)cc4c3=O)[C@@H]2C(=O)O)cc1 (racemic) [Example 120, (+/−)-(1RS,2RS,5SR)-2-[4-(Hexyloxy)benzoyl]-5-[(6-methyl-4-oxo-1,2,3-benzotriazin-3(4H)-yl)methyl]cyclopentanecarboxylic acid] | 0.1 |
| O=C(O)[C@@H]1[C@@H](Cn2nnc3ccc(C(F)(F)F)cc3c2=O)CC[C@H]1C(=O)c1ccc(OCc2cccc(N3CCOC3=O)c2)cc1 (single isomer, unassigned) [Example 34, (−)-(1RS,2RS,5SR)-2-(4-{[3-(2-Oxo-1,3-oxazolidin-3-yl)benzyl]oxy}benzoyl)-5-{[4-oxo-6-(trifluoromethyl)-1,2,3-benzotriazin-3(4H)-yl]methyl}cyclopentanecarboxylic acid] | 160 |
| O=C(O)[C@H]1[C@H](Cn2nnc3ccc(C(F)(F)F)cc3c2=O)CC[C@@H]1C(=O)c1ccc(SCc2cccc(Cl)c2)cc1 (racemic) [Example 76, (+/−)-(1RS,2RS,5SR)-2-{4-[(3-Chlorobenzyl)sulphanyl]benzoyl}-5-{[4-oxo-6-(trifluoromethyl)-1,2,3-benzotriazin-3(4H)-yl]methyl}cyclopentanecarboxylic acid] | 0.1 |
| COc1cccc(COc2ccc(C(=O)[C@@H]3CC[C@H](Cn4nnc5ccc(C)cc5c4=O)[C@H]3C(=O)O)cc2)c1 (single isomer, unassigned) [Example 108, (−)-(1RS,2RS,5SR)-2-{4-[(3-Methoxybenzyl)oxy]benzoyl}-5-[(6-methyl-4-oxo-1,2,3-benzotriazin-3(4H)-yl)methyl]cyclopentanecarboxylic acid] | 470 |
| O=C(O)[C@@H]1[C@@H](Cn2nnc3ccc(C(F)(F)F)cc3c2=O)CC[C@H]1C(=O)c1ccc(SCc2ccc(Cl)c(Cl)c2)cc1 (single isomer, unassigned) [Example 81, (−)-(1RS,2RS,5SR)-2-{4-[(3,4-Dichlorobenzyl)sulphanyl]benzoyl}-5-{[4-oxo-6-(trifluoromethyl)-1,2,3-benzotriazin-3(4H)-yl]methyl}cyclopentanecarboxylic acid] | 25 |
| Cc1ccc2nnn(C[C@H]3CC[C@@H](C(=O)c4ccc(OCCc5ccccc5)cc4)[C@@H]3C(=O)O)c(=O)c2c1 (single isomer, unassigned) [Example 114, (−)-(1RS,2SR,5RS)-2-[(6-Methyl-4-oxo-1,2,3-benzotriazin-3(4H)-yl)methyl]-5-[4-(2-phenylethoxy)benzoyl]cyclopentanecarboxylic acid] | 110 |
| O=C(O)[C@@H]1[C@@H](Cn2nnc3ccc(C(F)(F)F)cc3c2=O)CC[C@H]1C(=O)c1ccc(OCc2ccc(Cl)cc2)cc1 (single isomer, unassigned) [Example 26, (−)-(1RS,2RS,5SR)-2-{4-[(4-Chlorobenzyl)oxy]benzoyl}-5-{[4-oxo-6-(trifluoromethyl)-1,2,3-benzotriazin-3(4H)-yl]methyl}cyclopentanecarboxylic acid] | 1 |
| Cc1cccc(COc2ccc(C(=O)[C@@H]3CC[C@H](Cn4nnc5ccc(C(F)(F)F)cc5c4=O)[C@H]3C(=O)O)cc2)c1 (single isomer, unassigned) [Example 17, (−)-(1RS,2RS,5SR)-2-{4-[(3-Methylbenzyl)oxy]benzoyl}-5-{[4-oxo-6-(trifluoromethyl)-1,2,3-benzotriazin-3(4H)-yl]methyl}cyclopentanecarboxylic acid] | 48 |
| (−)-(1RS,2RS,5SR)-2-{4-[(3,4-Dichlorobenzyl)oxy]benzoyl}-5-{[4-oxo-6-(trifluoromethyl)-1,2,3-benzotriazin-3(4H)-yl]methyl}cyclopentanecarboxylic acid [Example 29] | 4.1 |
| (−)-(1RS,2RS,5SR)-2-{4-[Cyclohexyl)methyl)sulphanyl]benzoyl}-5-{[4-oxo-6-(trifluoromethyl)-1,2,3-benzotriazin-3(4H)-yl]methyl}cyclopentanecarboxylic acid [Example 87] | 8.3 |
| O=C(O)[C@@H]1[C@@H](Cn2nnc3ccc(C(F)(F)F)cc3c2=O)CC[C@H]1C(=O)c1ccc(OCCc2ccccc2)cc1 (single isomer, unassigned) [Example 37, (+)-(1RS,2SR,5RS)-2-{[4-Oxo-6-(trifluoromethyl)-1,2,3-benzotriazin-3(4H)-yl]methyl}-5-[4-(2-phenylethoxy)benzoyl]cyclopentanecarboxylic acid] | 0.08 |
| CCCCCSc1ccc(C(=O)[C@@H]2CC[C@H](Cn3nnc4ccc(C(F)(F)F)cc4c3=O)[C@H]2C(=O)O)cc1 (single isomer, unassigned) [Example 90, (−)-(1RS,2SR,5RS)-2-{[4-Oxo-6-(trifluoromethyl)-1,2,3-benzotriazin-3(4H)-yl]methyl}-5-[4-(pentylsulphanyl)benzoyl]cyclopentanecarboxylic acid] | 1.1 |
| Cc1ccc2nnn(C[C@@H]3CC[C@H](C(=O)c4ccc(OCC5CCCC5)cc4)[C@H]3C(=O)O)c(=O)c2c1 (racemic) [Example 119, (+/−)-(1RS,2RS,5SR)-2-[4-(Cyclopentylmethoxy)benzoyl]-5-[(6-methyl-4-oxo-1,2,3-benzotriazin-3(4H)-yl)methyl]cyclopentanecarboxylic acid] | 0.048 |
| Cc1ccc2nnn(C[C@@H]3CC[C@H](C(=O)c4ccc(OCCCc5ccccc5)cc4)[C@H]3C(=O)O)c(=O)c2c1 (racemic) [Example 115, (+/−)-(1RS,2SR,5RS)-2-[(6-Methyl-4-oxo-1,2,3-benzotriazin-3(4H)-yl)methyl]-5-[4-(3-phenylpropoxy)benzoyl]cyclopentanecarboxylic acid] | 0.13 |
| O=C(O)[C@@H]1[C@@H](Cn2nnc3ccc(C(F)(F)F)cc3c2=O)CC[C@H]1C(=O)c1ccc(OCc2ccc(F)cc2)cc1 (single isomer, unassigned) [Example 14, (−)-(1RS,2RS,5SR)-2-{4-[(4-Fluorobenzyl)oxy]benzoyl}-5-{[4-oxo-6-(trifluoromethyl)-1,2,3-benzotriazin-3(4H)-yl]methyl}cyclopentanecarboxylic acid] | 10 |
| O=C(O)[C@H]1[C@H](Cn2nnc3ccc(C(F)(F)F)cc3c2=O)CC[C@@H]1C(=O)c1ccc(OCc2cccc(N3CCOC3=O)c2)cc1 (racemic) [Example 33, (+/−)-(1RS,2RS,5SR)-2-(4-{[3-(2-Oxo-1,3-oxazolidin-3-yl)benzyl]oxy}benzoyl)-5-{[4-oxo-6-(trifluoromethyl)-1,2,3-benzotriazin-3 (4H)-yl]methyl}cyclopentanecarboxylic acid] | 0.13 |
| O=C(O)[C@@H]1[C@@H](Cn2nnc3ccc(C(F)(F)F)cc3c2=O)CC[C@H]1C(=O)c1ccc(SCc2ccccc2)cc1 (single isomer, unassigned) [Example 74, (−)-(1RS,2RS,5SR)-2-[4-(Benzylsulphanyl)benzoyl]-5-{[4-oxo-6-(trifluoromethyl)-1,2,3-benzotriazin-3(4H)-yl]methyl}cyclopentanecarboxylic acid] | 160 |
| Cc1ccc2nnn(C[C@H]3CC[C@@H](C(=O)c4ccc(OCc5ccccc5)cc4)[C@@H]3C(=O)O)c(=O)c2c1 (single isomer, unassigned) [Example 93, (−)-(1RS,2RS,5SR)-2-[4-(Benzyloxy)benzoyl]-5-[(6-methyl-4-oxo-1,2,3-benzotriazin-3(4H)-yl)methyl]cyclopentanecarboxylic acid] | 190 |
